Experimental data: PMC2859821 (Molecular pharmaceutics, 2009)

Columns and labels:
[1] = statement in abstract; no data in this paper; cited from earlier work
three types of cells = details: cited from earlier work
HeLa cells = details: 100 nM nocodazole 16 h, 10 μM, 40 min; in contrast to interphase cells

## 5(6)-Carboxyfluorescein-R.I.-CKTat9 [Flu-R.I.-CKTat9]
HeLa cell surface
  cell surface-bound amount at 0 °C in KPBS versus PBS: no difference

## Acetyl-dC-dK-dR-dR-dR-dQ-dR-dR-dK-dK-dR-CONH2 [R.I.-CKTat9]
[1]
  proteolytic stability: proteolytically stable

## polyarginine
Three types of cells
  reduction of cell-associated fluorescence by high potassium buffer: more than 90%

## rhodamine-R.I.-CKTat9 [Rho-R.I.-CKTat9]
HeLa cells
  uptake by HeLa cells arrested in M phase (microscopy): did not take up
